The results in this text go back to ChEMBL document CHEMBL1275550, “In vitro activity of doripenem, a carbapenem for the treatment of challenging infections caused by gram-negative bacteria, against recent clinical isolates from the United States” (2008).

≈ marks a conversion by molar mass, not a printed value.

Assay type in all cases: functional
Experiment [1] concerns Serratia marcescens. Put plainly: Antimicrobial activity against Serratia marcescens assessed as intermediate isolate by broth microdilution method.
The subject of experiment [2] is Citrobacter. Kind of experiment: Antimicrobial activity against Citrobacter assessed as intermediate isolate by broth microdilution method.
Experiment [3] relates to Streptococcus pneumoniae. Kind of experiment: Antimicrobial activity against penicillin-resistant Streptococcus pneumoniae assessed as resistant isolate by broth microdilution method.
Experiment [4] deals with Pseudomonas aeruginosa. Kind of experiment: Antimicrobial activity against Pseudomonas aeruginosa assessed as intermediate isolate by broth microdilution method.
For experiment [5], the system named is Acinetobacter. Kind of experiment: Antimicrobial activity against imipenem susceptible Acinetobacter assessed as resistant isolate by broth microdilution method.
Experiment [6] has as its system Acinetobacter. Kind of experiment: Antimicrobial activity against Acinetobacter assessed as intermediate isolate by broth microdilution method.
The test system of experiment [7] is Klebsiella pneumoniae. Put plainly: Antimicrobial activity against Non-ESBL Klebsiella pneumoniae assessed as resistant isolate by broth microdilution method.
Another experiment concerns Staphylococcus. Put plainly: Antimicrobial activity against methicillin-susceptible coagulase-negative Staphylococcus assessed as susceptible isolate by broth microdilution method.
Experiment [8] has as its system Pseudomonas aeruginosa. Put plainly: Antimicrobial activity against Pseudomonas aeruginosa assessed as resistant isolate by broth microdilution method.
Experiment [9] relates to Enterobacter cloacae. Kind of experiment: Antimicrobial activity against Enterobacter cloacae assessed as intermediate isolate by broth microdilution method.
Experiment [10] deals with Serratia marcescens. Kind of experiment: Antimicrobial activity against Serratia marcescens assessed as resistant isolate by broth microdilution method.
For experiment [11], the system named is Enterobacteriaceae. Kind of experiment: Antimicrobial activity against Enterobacteriaceae assessed as resistant isolate by broth microdilution method.
In experiment [12] the test system is Proteus mirabilis. Kind of experiment: Antimicrobial activity against Proteus mirabilis assessed as intermediate isolate by broth microdilution method.
Experiment [13] deals with Proteus mirabilis. Kind of experiment: Antimicrobial activity against ESBL producing Proteus mirabilis assessed as susceptible isolate by broth microdilution method in presence of Tazobactam.
The subject of experiment [14] is Klebsiella pneumoniae. Put plainly: Antimicrobial activity against Non-ESBL Klebsiella pneumoniae assessed as resistant isolate by broth microdilution method in presence of Tazobactam.
The subject of experiment [15] is Pseudomonas aeruginosa. Kind of experiment: Antimicrobial activity against imipenem non-susceptible Pseudomonas aeruginosa assessed as susceptible isolate by broth microdilution method in presence of Tazobactam.
In experiment [16] the test system is Proteus mirabilis. Kind of experiment: Antimicrobial activity against ESBL producing Proteus mirabilis by broth microdilution method in presence of Tazobactam.
Experiment [17] concerns Acinetobacter. Kind of experiment: Antimicrobial activity against imipenem susceptible Acinetobacter by broth microdilution method in presence of Tazobactam.
For experiment [18], the system named is Pseudomonas aeruginosa. Kind of experiment: Antimicrobial activity against Pseudomonas aeruginosa isolated from ICU patient assessed as intermediate isolate by broth microdilution method in presence of Tazobactam.
The subject of experiment [19] is Citrobacter. Kind of experiment: Antimicrobial activity against Citrobacter with derepressed AmpC beta-lactamsae by broth microdilution method in presence of Tazobactam.
Experiment [20] concerns Enterobacter cloacae. Kind of experiment: Antimicrobial activity against Enterobacter cloacae with nonderepressed AmpC beta-lactamsae assessed as resistant isolate by broth microdilution method in presence of Tazobactam.
Experiment [21] concerns Serratia marcescens. Kind of experiment: Antimicrobial activity against Ceftazidime non-susceptible Serratia marcescens assessed as intermediate isolate by broth microdilution method in presence of tazobactam.
In experiment [22] the test system is Enterobacter cloacae. Put plainly: Antimicrobial activity against Enterobacter cloacae with nonderepressed AmpC beta-lactamsae by broth microdilution method in presence of Tazobactam.
Experiment [23] deals with Acinetobacter. Kind of experiment: Antimicrobial activity against imipenem susceptible Acinetobacter assessed as resistant isolate by broth microdilution method in presence of Tazobactam.
The subject of experiment [24] is Serratia marcescens. Put plainly: Antimicrobial activity against ceftazidime susceptible Serratia marcescens by broth microdilution method in presence of Tazobactam.
The subject of experiment [25] is Serratia marcescens. Kind of experiment: Antimicrobial activity against ceftazidime susceptible Serratia marcescens assessed as susceptible isolate by broth microdilution method in presence of Tazobactam.
In experiment [26] the test system is Pseudomonas aeruginosa. Kind of experiment: Antimicrobial activity against imipenem susceptible Pseudomonas aeruginosa assessed as intermediate isolate by broth microdilution method in presence of Tazobactam.
Experiment [27] deals with Serratia marcescens. Kind of experiment: Antimicrobial activity against ceftazidime non-susceptible Serratia marcescens assessed as resistant isolate by broth microdilution method in presence of Tazobactam.
Another experiment has as its system Escherichia coli. Kind of experiment: Antimicrobial activity against Non-ESBL Escherichia coli by broth microdilution method in presence of Tazobactam.
In experiment [28] the test system is Acinetobacter. Put plainly: Antimicrobial activity against imipenem non-susceptible Acinetobacter assessed as susceptible isolate by broth microdilution method in presence of Tazobactam.
For experiment [29], the system named is Pseudomonas aeruginosa. Put plainly: Antimicrobial activity against imipenem non-susceptible Pseudomonas aeruginosa assessed as resistant isolate by broth microdilution method in presence of Tazobactam.
The test system of experiment [30] is Serratia marcescens. Kind of experiment: Antimicrobial activity against Ceftazidime non-susceptible Serratia marcescens by broth microdilution method in presence of tazobactam.
Experiment [31] deals with Klebsiella pneumoniae. Put plainly: Antimicrobial activity against ESBL producing Klebsiella pneumoniae by broth microdilution method in presence of Tazobactam.
Experiment [32] concerns Pseudomonas aeruginosa. Kind of experiment: Antimicrobial activity against Pseudomonas aeruginosa isolated from non-ICU patient assessed as intermediate isolate by broth microdilution method in presence of Tazobactam.
Experiment [33] deals with Enterobacteriaceae. Put plainly: Antimicrobial activity against ceftazidime-susceptible Enterobacteriaceae assessed as intermediate isolate by broth microdilution method in presence of Tazobactam.
Experiment [34] deals with Pseudomonas aeruginosa. Put plainly: Antimicrobial activity against ceftazidime susceptible Pseudomonas aeruginosa by broth microdilution method in presence of Tazobactam.
Experiment [35] relates to Enterobacter cloacae. Put plainly: Antimicrobial activity against Enterobacter cloacae with derepressed AmpC beta-lactamsae assessed as resistant isolate by broth microdilution method in presence of Tazobactam.
In experiment [36] the test system is Proteus mirabilis. Put plainly: Antimicrobial activity against Non-ESBL Proteus mirabilis assessed as susceptible isolate by broth microdilution method in presence of Tazobactam.
The test system of experiment [37] is Pseudomonas aeruginosa. Kind of experiment: Antimicrobial activity against imipenem susceptible Pseudomonas aeruginosa by broth microdilution method in presence of Tazobactam.
For experiment [38], the system named is Enterobacteriaceae. Kind of experiment: Antimicrobial activity against ceftazidime-susceptible Enterobacteriaceae by broth microdilution method in presence of Tazobactam.
The test system of experiment [39] is Serratia marcescens. Put plainly: Antimicrobial activity against Ceftazidime susceptible Serratia marcescens assessed as intermediate isolate by broth microdilution method in presence of tazobactam.
The subject of experiment [40] is Proteus mirabilis. Put plainly: Antimicrobial activity against ESBL producing Proteus mirabilis assessed as intermediate isolate by broth microdilution method in presence of Tazobactam.
Experiment [41] has as its system Enterobacter cloacae. Put plainly: Antimicrobial activity against Enterobacter cloacae with nonderepressed AmpC beta-lactamsae assessed as intermediate isolate by broth microdilution method in presence of Tazobactam.
In experiment [42] the test system is Citrobacter. Put plainly: Antimicrobial activity against Citrobacter with derepressed AmpC beta-lactamsae assessed as susceptible isolate by broth microdilution method in presence of Tazobactam.
Experiment [43] relates to Citrobacter. Kind of experiment: Antimicrobial activity against Citrobacter with nonderepressed AmpC beta-lactamsae assessed as intermediate isolate by broth microdilution method in presence of Tazobactam.
The subject of a further experiment is Staphylococcus aureus. Put plainly: Antimicrobial activity against methicillin-resistant Staphylococcus aureus by broth microdilution method.
Experiment [44] has as its system Streptococcus pneumoniae. Put plainly: Antimicrobial activity against penicillin-intermediate Streptococcus pneumoniae by broth microdilution method.
Experiment [45] deals with Proteus mirabilis. Kind of experiment: Antimicrobial activity against Non-ESBL Proteus mirabilis assessed as resistant isolate by broth microdilution method.
Experiment [46] has as its system Citrobacter. Put plainly: Antimicrobial activity against Citrobacter assessed as resistant isolate by broth microdilution method.
Experiment [47] deals with Serratia marcescens. Kind of experiment: Antimicrobial activity against Ceftazidime non-susceptible Serratia marcescens assessed as resistant isolate by broth microdilution method.

As to `C[C@@H](O)[C@H]1C(=O)N2C(C(=O)O)=C(S[C@@H]3CN[C@H](C(=O)N(C)C)C3)[C@H](C)[C@H]12` [MEROPENEM], the Activity with Serratia marcescens [1] is listed as 0%; in the experiment on Citrobacter [2], 0%; with Streptococcus pneumoniae [3], 2.3%; in the experiment on Pseudomonas aeruginosa [4], 4.6%; in the experiment with Acinetobacter [5], 0.4%; with Acinetobacter [6], 1.4%. In addition, the Activity with Klebsiella pneumoniae [7] is 0.2%; in the experiment with Staphylococcus, 99.4%; in the experiment on Pseudomonas aeruginosa [8], 10.2%; with Enterobacter cloacae [9], 0.4%; in the experiment with Serratia marcescens [10] it was 0.8%; in the experiment with Enterobacteriaceae [11], 0.1%. Further, the Activity in the experiment with Proteus mirabilis [12] stood at 0%.
In the case of `CCN1CCN(C(=O)N[C@@H](C(=O)N[C@@H]2C(=O)N3[C@@H]2SC(C)(C)[C@@H]3C(=O)O)c2ccccc2)C(=O)C1=O` [PIPERACILLIN], the Activity amounted to 100% with Proteus mirabilis [13]; 1.7% in the experiment with Klebsiella pneumoniae [14]; 72.9% in the experiment with Pseudomonas aeruginosa [15]; 0% in the experiment on Pseudomonas aeruginosa [18]; 3.5% with Enterobacter cloacae [20]; 30% with Serratia marcescens [21]. In addition, the Activity in the experiment on Acinetobacter [23] was 29.8%; in the experiment on Serratia marcescens [25] it was 93.6%; with Pseudomonas aeruginosa [26], 0%; in the experiment on Serratia marcescens [27], 50%; with Acinetobacter [28] it was 0%; in the experiment with Pseudomonas aeruginosa [29] it was 27.1%. Moreover, the Activity is on record as 0% in the experiment with Pseudomonas aeruginosa [32]; 2.3% with Enterobacteriaceae [33]; 82.5% in the experiment with Enterobacter cloacae [35]; 99.4% with Proteus mirabilis [36]; 4.4% in the experiment on Serratia marcescens [39]; 0% with Proteus mirabilis [40]. Further, the Activity amounted to 3.2% in the experiment on Enterobacter cloacae [41], 3.6% with Citrobacter [42] and 3.7% in the experiment with Citrobacter [43]. Besides, in the experiment with Proteus mirabilis [16], the MIC stood at 0.5 µg/mL. The MIC50 in the experiment with Acinetobacter [17] worked out at 16 µg/mL; in the experiment on Citrobacter [19] it was 128 µg/mL; with Enterobacter cloacae [22] it was 4 µg/mL; in the experiment on Serratia marcescens [24], 4 µg/mL; in the experiment with Escherichia coli it was 4 µg/mL; with Serratia marcescens [30], 64 µg/mL. Further, the MIC50 with Klebsiella pneumoniae [31] was above 128 µg/mL; in the experiment with Pseudomonas aeruginosa [34] it was 16 µg/mL; in the experiment with Pseudomonas aeruginosa [37], 16 µg/mL; in the experiment with Enterobacteriaceae [38] it was 4 µg/mL. The MIC90 in the experiment on Acinetobacter [17] was above 128 µg/mL; in the experiment on Citrobacter [19] it was above 128 µg/mL; in the experiment on Enterobacter cloacae [22], 16 µg/mL; in the experiment with Serratia marcescens [24] it was 16 µg/mL; with Escherichia coli, 8 µg/mL; in the experiment with Serratia marcescens [30], above 128 µg/mL. Further, the MIC90 is above 128 µg/mL in the experiment with Klebsiella pneumoniae [31], 64 µg/mL with Pseudomonas aeruginosa [34], 64 µg/mL with Pseudomonas aeruginosa [37] and 8 µg/mL with Enterobacteriaceae [38].
As to `C[C@@H](O)[C@H]1C(=O)N2C(C(=O)O)=C(S[C@@H]3CN[C@H](CNS(N)(=O)=O)C3)[C@H](C)[C@H]12` [DORIPENEM], in the experiment on Staphylococcus aureus, the MIC50 was determined as 0.5 µg/mL (≈ 1.19 µM) and the MIC90 was 8 µg/mL (≈ 19 µM). In the experiment on Streptococcus pneumoniae [44], the MIC50 was 0.03 µg/mL (≈ 0.0713 µM) and the MIC90 amounted to 0.5 µg/mL (≈ 1.19 µM).
For `C[C@@H](O)[C@H]1C(=O)N2C(C(=O)O)=C(SCCNC=N)C[C@H]12` [IMIPENEM ANHYDROUS], the Activity in the experiment with Serratia marcescens [1] is 0.3%; in the experiment on Citrobacter [2], 0%; with Streptococcus pneumoniae [3], 2.1%; in the experiment with Pseudomonas aeruginosa [4] it was 7.7%; in the experiment with Proteus mirabilis [45], 0.2%; in the experiment on Acinetobacter [6] it was 0.7%. The Activity with Staphylococcus is given as 99.4%; in the experiment on Pseudomonas aeruginosa [8], 16%; in the experiment with Enterobacter cloacae [9], 0.4%; with Serratia marcescens [10], 0.8%; in the experiment with Citrobacter [46], 0.2%; in the experiment on Enterobacteriaceae [11], 0.1%. The Activity with Proteus mirabilis [12] is 2.5%. The MIC50 against Staphylococcus aureus turned out to be 0.25 µg/mL (≈ 0.835 µM); with Streptococcus pneumoniae [44] it was 0.03 µg/mL (≈ 0.1 µM). Further, the MIC90 against Staphylococcus aureus was determined as 8 µg/mL (≈ 26.7 µM); in the experiment with Streptococcus pneumoniae [44], 0.25 µg/mL (≈ 0.835 µM).
As for `CC(C)(O/N=C(\C(=O)N[C@@H]1C(=O)N2C(C(=O)[O-])=C(C[n+]3ccccc3)CS[C@H]12)c1csc(N)n1)C(=O)O` [CEFTAZIDIME], the Activity in the experiment with Proteus mirabilis [45] is listed as 0.3%; in the experiment on Acinetobacter [5], 27.7%; with Serratia marcescens [47] it was 100%; with Klebsiella pneumoniae [7], 0.6%.
